Test results from patent US11827663B2, “Use of UAP inhibitors to inhibit flux through the hexosamine biosynthetic pathway” (The Johns Hopkins University, priority 2014, dated 2023).
Like-named read-outs stand apart in the source and are kept apart here.

Tests used:
Type in all cases: cell-based
[1] = test system: PANC-1 cells; assay: Cell count / cell proliferation assay in PANC-1 cells; conditions: for effect on PANC-1 cell numbers / proliferation: in words; for IC50: cells counted after 48 hours incubation, normalized to controls, read-out: Estimated IC50 values, PANC-1
Protocol: (§1) FIGS. 5A and 5B show the results of cell toxicity experiments that were conducted on SW1990 and PANC-1 cells with the analogs indicated. Cells were counted after incubation with each analog for 48 hours. Cell counts were then normalized to controls, data was log transformed, and IC50 values were calculated. […]
(§2) Cells were incubated at a range of concentrations of the UAP inhibitors (typically at 0, 10, 25, 50, 100, and 150 μM) and the number of cells were quantified, typically by automated counting (e.g., with a Coulter Counter Z2 instrument) after 1, 2, 3, or 5 days of exposure.

[2] = test system: SW1990 cells; assay: Cell count / cell proliferation assay in SW1990 cells; conditions: for effect on SW1990 cell numbers / proliferation: in words; for IC50: cells counted after 48 hours incubation, normalized to controls, read-out: Estimated IC50 values, SW1990
Protocol: FIG. 3 depicts the result of cell count assays after two days of incubation with an exemplary compound, Ac4Glc2Bz. The cells treated with the compound are, respectively, SW1990 and PANC-1, which are pancreatic cancer cell lines. Meanwhile, control samples were treated with solvent vehicle of 2.5 μL DMSO per 1 mL of medium.
as §1, §2

[3] = test system: primary human adipose stem cells (hASCs); assay: Cell count assay in control cells (human ASCs); conditions: Homo sapiens, 48 h; two days of exposure; 300 is the highest concentration tested
Source text: FIG. 4A and FIG. 4B depict histogram results of cell count assays after two days of exposure to each analog in cancer cell lines (SW1990 and PANC-1) and in control cells (human ASCs). […] In all cases, IC50 values were greater than 300 which is the highest concentration tested, for the ACSs, while the Ac4Glc2Bz analogs and Ac4Gal2Bz analogs were effective to reduce cell numbers in both cancer cell lines.

SMILES	effect on PANC-1 cell numbers / proliferation [1]	effect on SW1990 cell numbers / proliferation [2]	IC50 ([1]; Homo sapiens, PANC-1) [µM]	IC50 ([2]; Homo sapiens, SW1990) [µM]	IC50 [3] [µM]	IC50 [1] [µM]	IC50 [2] [µM]
CC(=O)OC1OC(CO)C(OC(C)=O)C(OC(C)=O)C1NC(=O)c1ccccc1 (stereo not shown) [1,3,4-O-Ac3Glc2Bz]	consistently reduced cell numbers	consistently reduced cell numbers					
CC(=O)OCC1OC(OC(C)=O)[C@@H](NC(=O)C2CCCCC2)[C@@H](OC(C)=O)[C@H]1OC(C)=O (stereo partly shown) [Ac4GlcNCyx]			84.1 ± 1.5	160.9 ± 1.4			
CC(=O)OCC1OC(OC(C)=O)[C@@H](NC(=O)c2ccccc2)[C@@H](OC(C)=O)[C@H]1OC(C)=O (stereo partly shown) [Ac4Gal2Bz]		remarkable inhibition	107 ± 1.1	39.1 ± 2.2	> 300		
CC(=O)OCC1OC(OC(C)=O)[C@H](NC(=O)c2ccccc2)[C@@H](OC(C)=O)[C@H]1OC(C)=O (stereo partly shown) [Ac4Man2Bz]	substantially low effect	substantially low effect	100 ± 1.8	148 ± 1.5			
CC(=O)OCC1OC(O)[C@@H](NC(=O)c2ccccc2)[C@@H](OC(C)=O)[C@@H]1OC(C)=O (stereo partly shown) [3,4,6-O—Ac3Glc2Bz]		remarkable inhibition				76.1 ± 1.6	37.1 ± 1.8
CC(=O)OC[C@H]1OC(OC(C)=O)[C@H](NC(=O)c2ccccc2O)[C@@H](OC(C)=O)[C@@H]1OC(C)=O (stereo partly shown) [Ac4Glc2NBz-2-OH]	consistently reduced cell numbers	consistently reduced cell numbers				49.9 ± 1.3	140.3 ± 1.4
